Here are results for two compounds from patent publication US20200199174A1, “NOVEL FLUORESCENT LABELING METHOD” (priority 2017, published 2020).

Data set [1] has as its system 5D4 fusion proteins in HeLa cells. The data set can be described thus: Fluorescent labeling of 5D4 fusion proteins expressed in HeLa cells (live cell imaging). The format is cell-based. On the procedure:
HEK293T cells and HeLa cells were cultured in Dulbecco's Modified Eagle's Medium (DMEM, Wako) including 10% fetal bovine serum (FBS, SIGMA) at a carbon dioxide concentration of 5% and a temperature of 37° C.
Gene transfer into HeLa cells was performed using lipofection. For the HeLa cells under culture in a 24-well dish, 25 μL of Opti-MEM I (GIBCO) to which 0.5 μg of a plasmid had been added was added to a mixed solution of 2 μL of Lipofectamine 2000 (Invitrogen) and 25 μL of Opti-MEM I and incubated for five minutes at room temperature. This mixture was added to 500 μL of a medium 90-100% confluent with HEK293T cells and HeLa cells, and culturing was performed at 37° C. at a carbon dioxide concentration of 5%. Cell concentration was diluted to 1/10 5 to 8 hours after transfection, and cells were re-seeded on a glass dish. Cells were subjected to various imaging experiments after 24 hours had passed since transfection.
Cells were observed using an inverted microscope (IX-71, Olympus) provided with a xenon arc lamp. Images were captured using an EM-CCD camera (iXon EM+, Andor). During acquisition of a 6SiR-DNP fluorescence image, a Cy5-4040C filter set (Semrock) comprising a 608-648 nm excitation light filter, a 660 nm dichroic mirror, and a 672-712 nm absorption filter was used.
During acquisition of a CFP fluorescence image, a U-MCFPHQ filter set (Olympus) comprising a 424-438 nm excitation light filter, a 450 nm dichroic mirror, and a 460-510 nm absorption filter was used. An objective lens (10×NA 0.3, 20×NA 0.75: Olympus) was used for the screening in FIG. 3, and an oil immersion objective lens (100× NA 1.4: Olympus) was used in the observations in FIGS. 5, 8, 9, and 10.
The HeLa cell medium was drawn up and washed with HBS buffer solution (25 mM HEPES, 125 mM NaCl, 2.5 mM KCl, 2 mM CaCl2, 1 mM MgCl2, and 25 mM D-glucose; pH 7.4), and cells were then observed in the HBS buffer solution including 6SiR-DNP at a concentration of 100 nM or 10 nM. Image capture was started 5 minutes after the 6SiR-DNP was added. Images were analyzed using ImageJ (NIH).
5D4 expressed at an arbitrary site in a cell was labeled with 6SiR-DNP, and the ability to observe a fluorescence image using a fluorescence microscope was investigated. When cells expressing only ECFP were loaded with 6SiR-DNP (FIG. 8A), and when ECFP to which 5D4 was added was expressed in cells but the cells were not loaded with 6SiR-DNP, a fluorescence signal due to 6SiR-DNP was not observed (FIG. 8B).
Using a β-tubulin protein as an observation object, a 5D4 fusion protein expression construct was transgenically introduced into a Hela cell. […] An attempt was also made to observe b-actin in the cell. When a fusion protein of β-actin and 5D4 was expressed in a HeLa cell and the cell was observed, a fibrous structure characteristic of β-actin was observed (FIG. 9B). In order to visualize F-actin internal to the cell, an expression construct in which a peptide sequence (Lifeact sequence) for specifically binding to F-actin was added to the N-terminus of 5D4 was transgenically introduced into a HeLa cell. A characteristic fibrous structure was observed that was similar to the structure observed when a fusion protein of β-actin and 5D4 was expressed in the cell (FIG. 9C).

Data set [2] has as its system ECFP-5D4 (Y96F) with endoplasmic reticulum localization signal in HeLa cells. The experiment in a line: Super-resolution imaging by single-molecule localization. Particulars: 10 nM probe, 640 nm laser, relative to normal fluorescence microscope image. The format is cell-based. The method, then:
An ECFP-5D4 (Y96F) expression plasmid (pECFP-5D4 (Y96F)-ER) to which an endoplasmic reticulum localization signal sequence was added was introduced to HeLa cells cultured on a 96-well plate, using Lipofectamine 2000. At 20 hours after plasmid introduction, the cells were treated with trypsin/EDTA and stripped, and then re-seeded on a cover glass coated with collagen/poly-L-lysine. At 20 hours after re-seeding, the cells were washed with HBS, loaded with 10 nM 6SiR-DNP, and subjected to super-resolution imaging. A specimen was excited using a 640 nm semiconductor laser, and fluorescence intermittency images of a single molecule were continuously acquired at an exposure of 16 milliseconds by a backside-illuminated cooled EM-CCD camera (iXon, Andor Technology). A centroid position of a bright point of single-molecule fluorescence in each image was determined, and a super-resolution image was reconstructed.

The next data set relates to 5D4. The experiment in a line: Fluorescence change characteristics of fluorophore-DNP pair in presence and absence of 5D4. The data set is classed as biochemical, mouse. The method, then: The anti-DNP scFv was expressed and purified as a fusion protein of maltose-binding protein. Escherichia coli BL21 (DE3) was transformed with the pMalc5E vector (pMalc5E-scFv) into which the purification object scFv sequence was introduced, and was cultured overnight on an LB medium plate including 100 μg/mL of ampicillin. A single colony was picked up and cultured overnight in 5 mL of a liquid LB medium including 100 μg/mL of ampicillin, and 1 mL of the resultant culture liquid was transferred to 100 mL of LB medium including 100 μg/mL of ampicillin. Shake culturing was performed at 200 rpm and a temperature of 37° C. until an optical density at 600 nm of 0.8 was reached, and after shake culturing was performed for 30 minutes at 15° C., IPTG was added to give a final concentration of 0.5 mM, and shake culturing was continued overnight. The E. coli were recovered after culturing and were disrupted using a sonicator. […] An eluate was replaced with PBS, and yield was quantified by the Bradford method, after which the eluate was subjected to the measurements described below.
RNA was extracted from the hybridomas of the resultant four clones, and cDNA fragments of the variable regions of the light chains and heavy chains of monoclonal antibodies were obtained by reverse transcription. The cDNA fragments of the variable regions of the light chains and heavy chains were connected via a linker sequence by overlap PCR, and scFv constructs were constructed only from subclones (4E10 and 5D4) derived from wells 1E10 and 3B12, respectively. […] The nucleic acid sequence of the cDNA sequence coding for 5D4 was identified by sequencing (SEQ ID NO: 8), an amino acid sequence determined from the result thereof was analyzed using the IMGT database (http://www.imgt.org/), and a […] region was specified (FIG. 4).
This fluorescence characteristic is similar to that of Cy5 dye, which is widely used in fluorescence imaging in cells. In the presence of 5D4, the fluorescence intensity of 6SiR-DNP was increased by a factor of 98 relative to the fluorescence intensity thereof in the absence of 5D4 (FIG. 6B). When fluorescence quantum yield of 6SiR-DNP in a state in which 6SiR-DNP is bound to 5D4 was measured, the fluorescence quantum yield in the presence of an excess of 5D4 was 0.57. This value for the fluorescence quantum yield is large, and is equal to or greater than that of Cy5 (quantum yield=0.2-0.4) and Cy5.5 (quantum yield=0.24), which are also highly versatile fluorescent dyes in cell labeling experiments (Q. Zheng et al., Ultra-stable organic fluorophores for single-molecule research. Chem Soc Rev 43, 1044-1056 (2014).).

For data set [3], the system named is HeLa cells expressing ECFP-5D4. The experiment in a line: Long-term-stable fluorescence imaging based on tag/probe binding/dissociation equilibrium. To be noted: 10 nM probe in extracellular fluid, whole cell irradiated with intense excitation light. The method, then:
HeLa cells expressing ECFP-5D4 were immersed for one hour at room temperature in HBS including 10 nM 6SiR-pCOONHMeoNP, and fluorescence imaging thereof was performed without modification of this state with the probe present at a concentration of 10 nM in the extracellular fluid. […] In super-resolution imaging and other fluorescence observation in which photobleaching has hitherto been a serious problem, the tag/probe method developed herein has the revolutionary characteristic of making it possible to obtain a semi-permanent fluorescence signal without limitation by photobleaching.

With `CN(C)c1ccc2c(c1)[Si](C)(C)C1=CC(=[N+](C)C)C=CC1=C2c1cc(C(=O)NCCOCCOCCNc2ccc([N+](=O)[O-])cc2[N+](=O)[O-])ccc1C(=O)[O-]` [Probe 6SiR-DNP, 2-(7-(dimethylamino)-3-(dimethylimino)-5,5-dimethyl-3,5-dihydrodibenzo[b,e]silin-10-yl)-4-((2-(2-(2-((2,4-dinitrophenyl)amino)ethoxy)ethoxy)ethyl)carbamoyl)benzoate], the “fluorescent labeling at targeted intracellular sites” value in data set [1] (ECFP-5D4 with localization peptide for nucleus, cell membrane, endoplasmic reticulum, final concentration 0.1 μM) was “fluorescent labeling at the targeted intracellular sites was accomplished for all the cells”. Further, the “fluorescence image of STIM1-5D4 fusion protein” value in data set [1] (HeLa cell stained with 6SiR-DNP) was “a structure running along the endoplasmic reticulum and microtubules was observed”. For the same compound, the “fluorescence image of tubulin-5D4 fusion protein” value in data set [1] (HeLa cell, 6SiR-DNP present in the extracellular fluid) is listed as “a fibrous structure characteristic of tubulin was observed”. Moreover, in data set [1] (HeLa cells expressing 5D4 as fusion protein with ECFP), the 6SiR-DNP fluorescence signal result was “observed covering the entire cytoplasm”. Besides, in data set [1] (cells expressing only ECFP loaded with 6SiR-DNP), the “fluorescence signal due to 6SiR-DNP” value is “not observed”. In addition, the “super-resolution image of endoplasmic reticulum” value in data set [2] is “visualized with high spatial resolution”. For the same compound, in the data set with 5D4 (bound to 5D4, in the presence of an excess of 5D4), the fluorescence quantum yield is recorded as 0.57. In addition, the “fluorescence intensity increased by a factor relative to absence of 5D4” value in the data set on 5D4 (in the presence of 5D4) was found to be 98. For the same compound, in the data set on 5D4 (when 5D4 was present), the absorption maximum is 653 nm and the fluorescence maximum was 668 nm.

As to `CNC(=O)c1ccc(NCCOCCOCCNC(=O)c2ccc(C(=O)[O-])c(C3=C4C=CC(=[N+](C)C)C=C4[Si](C)(C)c4cc(N(C)C)ccc43)c2)c([N+](=O)[O-])c1` [6SiR-pCOONHMeoNP, 2-(7-(dimethylamino)-3-(dimethylimino)-5,5-dimethyl-3,5-dihydrodibenzo[b,e]silin-10-yl)-4-((2-(2-(2-((4-(methylcarbamoyl)-2-nitrophenyl)amino)ethoxy)ethoxy)ethyl)carbamoyl)benzoate], the “fluorescence signal after photobleaching” value in data set [3] is reported as “recovery of the fluorescence signal after photobleaching was observed”.
